Source: patent US20230089867A1, “CYCLIC PENTAMER COMPOUNDS AS PROPROTEIN CONVERTASE SUBTILISIN/KEXIN TYPE 9 (PCSK9) INHIBITORS FOR THE TREATMENT OF METABOLIC DISORDER” (Novartis AG, priority 2018, published 2023)

Molecular target: human PCSK9 (Homo sapiens, UniProt Q8NBP7)
Assay: PCSK9 ligand binding TR-FRET assay (interference with binding of human PCSK9 to human LDLR)
Settings: for Max % inhibition: PCSK9 FRET assay, efficacy (Amax), 100% = 1 uM unlabeled human PCSK9, 0% = DMSO; for IC50: TR-FRET, human PCSK9 Alexa Fluor 647 / human LDLR extracellular domain-Europium Kryptate, read-out: PCSK9 FRET Assay IC50
Summary of the method: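 Threefold compound dilutions were pre-incubated 30 min with PCSK9, after which 4 nM Europium Kryptate-tagged human LDLR ectodomain was added for a further 2 h.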

Sequence of human PCSK9 (Q8NBP7 153-692): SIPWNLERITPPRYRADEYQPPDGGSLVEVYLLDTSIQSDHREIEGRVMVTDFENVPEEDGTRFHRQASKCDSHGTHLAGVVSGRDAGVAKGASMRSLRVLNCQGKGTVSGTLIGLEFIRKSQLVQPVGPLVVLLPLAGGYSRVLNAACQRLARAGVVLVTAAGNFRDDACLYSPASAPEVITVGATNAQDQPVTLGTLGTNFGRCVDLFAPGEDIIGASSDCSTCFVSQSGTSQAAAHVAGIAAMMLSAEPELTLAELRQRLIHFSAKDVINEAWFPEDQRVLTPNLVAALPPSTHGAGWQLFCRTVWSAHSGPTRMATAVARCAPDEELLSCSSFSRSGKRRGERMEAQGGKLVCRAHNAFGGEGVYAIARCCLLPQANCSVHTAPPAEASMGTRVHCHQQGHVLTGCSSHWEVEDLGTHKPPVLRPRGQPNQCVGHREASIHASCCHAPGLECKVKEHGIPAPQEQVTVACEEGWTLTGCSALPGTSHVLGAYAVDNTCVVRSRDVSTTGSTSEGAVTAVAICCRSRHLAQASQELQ
Sequence of human PCSK9 (Q8NBP7 31-152 partner limits assumed): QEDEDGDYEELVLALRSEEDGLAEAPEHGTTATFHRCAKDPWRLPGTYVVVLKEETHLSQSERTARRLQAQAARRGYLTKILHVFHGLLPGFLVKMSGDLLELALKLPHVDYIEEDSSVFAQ

COC[C@H]1CNC(=O)C[C@H](Cc2ccc(Cl)cc2)N(C)C(=O)[C@H](COC)NC(=O)[C@H](C)N(Cc2ccc(Cl)cc2Oc2ccc(-c3cnc(CN(C)C)n3C)cc2)C(=O)C[C@@H](Cc2ccccc2)C(=O)N1C [Compound 27, (2S,5S,8S,13R,16R)-16-benzyl-1-(4-chloro-2-(4-(2-((dimethylamino)methyl)-1-methyl-1H-imidazol-5-yl)phenoxy)benzyl)-8-(4-chlorobenzyl)-5,13-bis(methoxymethyl)-2,7,14-trimethyl-1,4,7,11,14-pentaazacyclooctadecane-3,6,10,15,18-pentaone]
Max % inhibition: 101.53% | IC50: 1.1 nM

COC[C@@H]1NC(=O)[C@H](C)N(Cc2ccc(Cl)cc2Oc2ccc(-c3cnc(C4CCCN4C)n3C)cc2)C(=O)C[C@@H](Cc2ccccc2)C(=O)N(C)[C@@H](C)CNC(=O)C[C@H](Cc2ccc(Cl)cc2)N(C)C1=O (stereo partly drawn) [Compound 28, (2S,5S,8S,13S,16R)-16-benzyl-1-(4-chloro-2-(4-(1-methyl-2-(1-methylpyrrolidin-2-yl)-1H-imidazol-5-yl)phenoxy)benzyl)-8-(4-chlorobenzyl)-5-(methoxymethyl)-2,7,13,14-tetramethyl-1,4,7,11,14-pentaazacyclooctadecane-3,6,10,15,18-pentaone]
Max % inhibition: 102.04% | IC50: 3.6 nM

COC[C@@H]1NC(=O)[C@H](CCN(C)C)N(Cc2ccc(Cl)cc2Oc2ccc(-c3cnc(CN(C)C)n3C)cc2)C(=O)C[C@@H](Cc2ccccc2)C(=O)N(C)[C@H]2CCCC[C@@H]2NC(=O)C[C@H](Cc2ccc(Cl)cc2)N(C)C1=O [Compound 29, (4S,7S,10S,14R,16aS,20aS)-14-benzyl-11-(4-chloro-2-(4-(2-((dimethylamino)methyl)-1-methyl-1H-imidazol-5-yl)phenoxy)benzyl)-4-(4-chlorobenzyl)-10-(2-(dimethylamino)ethyl)-7-(methoxymethyl)-5,16-dimethylhexadecahydrobenzo[l][1,4,7,11,14]pentaazacyclooctadecine-2,6,9,12,15(3H)-pentaone]
Max % inhibition: 94.90% | IC50: 0.6 nM

CCCC#Cc1ncc(-c2ccc(Oc3cc(Cl)ccc3CN3C(=O)C[C@@H](Cc4ccccc4)C(=O)N(C)[C@@H](C)CNC(=O)C[C@H](Cc4ccc(Cl)cc4)N(C)C(=O)[C@H](COC)NC(=O)[C@@H]3C)cc2)n1C [Compound 30, (2S,5S,8S,13S,16R)-16-benzyl-1-(4-chloro-2-(4-(1-methyl-2-(pent-1-yn-1-yl)-1H-imidazol-5-yl)phenoxy)benzyl)-8-(4-chlorobenzyl)-5-(methoxymethyl)-2,7,13,14-tetramethyl-1,4,7,11,14-pentaazacyclooctadecane-3,6,10,15,18-pentaone]
Max % inhibition: 85.21% | IC50: 59.8 nM

C[C@H]1CNC(=O)C[C@H](Cc2ccc(Cl)cc2)N(C)C(=O)[C@H](C2COC2)NC(=O)[C@H](C)N(Cc2ccc(Cl)cc2Oc2ccc(-c3cnc(CN(C)C)n3C)cc2)C(=O)C[C@@H](Cc2ccccc2)C(=O)N1C [Compound 31, (2S,5S,8S,13S,16R)-16-benzyl-1-(4-chloro-2-(4-(2-((dimethylamino)methyl)-1-methyl-1H-imidazol-5-yl)phenoxy)benzyl)-8-(4-chlorobenzyl)-2,7,13,14-tetramethyl-5-(oxetan-3-yl)-1,4,7,11,14-pentaazacyclooctadecane-3,6,10,15,18-pentaone]
Max % inhibition: 60.09% | IC50: 787 nM

COC[C@@H]1NC(=O)[C@H](C)N(Cc2ccc(Cl)cc2Oc2ccc(-c3cnc(CN(C)C)n3C)cc2)C(=O)C[C@@H](Cc2ccccc2)C(=O)N(C)C[C@H](C)NC(=O)C[C@H](Cc2ccc(Cl)cc2)N(C)C1=O [Compound 32, (2S,5S,8S,12S,16R)-16-benzyl-1-(4-chloro-2-(4-(2-((dimethylamino)methyl)-1-methyl-1H-imidazol-5-yl)phenoxy)benzyl)-8-(4-chlorobenzyl)-5-(methoxymethyl)-2,7,12,14-tetramethyl-1,4,7,11,14-pentaazacyclooctadecane-3,6,10,15,18-pentaone]
Max % inhibition: 103.15% | IC50: 1.8 nM

COC[C@@H]1NC(=O)[C@H](C)N(Cc2ccc(Cl)cc2Oc2ccc(-c3cnc(CN(C)C)n3C)cc2)C(=O)C[C@@H](Cc2ccc(F)c(F)c2F)C(=O)N(C)[C@@H](C)CNC(=O)C[C@H](Cc2ccc(Cl)cc2)N(C)C1=O [Compound 33, (2S,5S,8S,13S,16R)-1-(4-chloro-2-(4-(2-((dimethylamino)methyl)-1-methyl-1H-imidazol-5-yl)phenoxy)benzyl)-8-(4-chlorobenzyl)-5-(methoxymethyl)-2,7,13,14-tetramethyl-16-(2,3,4-trifluorobenzyl)-1,4,7,11,14-pentaazacyclooctadecane-3,6,10,15,18-pentaone]
Max % inhibition: 95.65% | IC50: 1.3 nM

COC[C@@H]1NC(=O)[C@H](C)N(Cc2c(F)cc(Cl)cc2Oc2ccc(-c3cnc(CN4CCCC4)n3C)cc2)C(=O)C[C@@H](Cc2ccccc2)C(=O)N(C)[C@@H](C)CNC(=O)C[C@H](Cc2ccc(Cl)cc2)N(C)C1=O [Compound 34, (2S,5S,8S,13S,16R)-16-benzyl-1-(4-chloro-2-fluoro-6-(4-(1-methyl-2-(pyrrolidin-1-ylmethyl)-1H-imidazol-5-yl)phenoxy)benzyl)-8-(4-chlorobenzyl)-5-(methoxymethyl)-2,7,13,14-tetramethyl-1,4,7,11,14-pentaazacyclooctadecane-3,6,10,15,18-pentaone]
Max % inhibition: 95.86% | IC50: 1 nM

COC[C@@H]1NC(=O)[C@H](C)N(Cc2ccc(OC(F)(F)F)cc2Oc2ccc(-c3cnc(CN(C)C)n3C)cc2)C(=O)C[C@@H](Cc2ccccc2)C(=O)N(C)[C@@H](C)CNC(=O)C[C@H](Cc2ccc(Cl)cc2)N(C)C1=O [Compound 35, (2S,5S,8S,13S,16R)-16-benzyl-8-(4-chlorobenzyl)-1-(2-(4-(2-((dimethylamino)methyl)-1-methyl-1H-imidazol-5-yl)phenoxy)-4-(trifluoromethoxy)benzyl)-5-(methoxymethyl)-2,7,13,14-tetramethyl-1,4,7,11,14-pentaazacyclooctadecane-3,6,10,15,18-pentaone]
Max % inhibition: 104.05% | IC50: 4.2 nM

COC[C@@H]1NC(=O)[C@H](CC(F)(F)F)N(Cc2ccc(Cl)cc2Oc2ccc(-c3cnc(CN(C)C)n3C)cc2)C(=O)C[C@@H](Cc2ccccc2)C(=O)N(C)[C@@H](C)CNC(=O)C[C@H](Cc2ccc(Cl)cc2)N(C)C1=O [Compound 37, (2S,5S,8S,13S,16R)-16-benzyl-1-(4-chloro-2-(4-(2-((dimethylamino)methyl)-1-methyl-1H-imidazol-5-yl)phenoxy)benzyl)-8-(4-chlorobenzyl)-5-(methoxymethyl)-7,13,14-trimethyl-2-(2,2,2-trifluoroethyl)-1,4,7,11,14-pentaazacyclooctadecane-3,6,10,15,18-pentaone]
Max % inhibition: 100.65% | IC50: 2.3 nM

COC[C@@H]1NC(=O)[C@H](CC(=O)N2CCOCC2)N(Cc2ccc(Cl)cc2Oc2ccc(-c3cnc(CN(C)C)n3C)cc2)C(=O)C[C@@H](Cc2ccccc2)C(=O)N(C)[C@@H](C)CNC(=O)C[C@H](Cc2ccc(Cl)cc2)N(C)C1=O [Compound 38, (2S,5S,8S,13S,16R)-16-benzyl-1-(4-chloro-2-(4-(2-((dimethylamino)methyl)-1-methyl-1H-imidazol-5-yl)phenoxy)benzyl)-8-(4-chlorobenzyl)-5-(methoxymethyl)-7,13,14-trimethyl-2-(2-morpholino-2-oxoethyl)-1,4,7,11,14-pentaazacyclooctadecane-3,6,10,15,18-pentaone]
Max % inhibition: 101.48% | IC50: 2.1 nM

COC[C@@H]1NC(=O)[C@H](C)N(Cc2c(OCC(F)(F)F)cc(Cl)cc2Oc2ccc(-c3cnc(CN(C)C)n3C)cc2)C(=O)CCC(=O)N(C)[C@H]2CCCC[C@@H]2NC(=O)C[C@H](Cc2ccc(Cl)cc2)N(C)C1=O [Compound 39, (4S,7S,10S,16aS,20aS)-11-(4-chloro-2-(4-(2-((dimethylamino)methyl)-1-methyl-1H-imidazol-5-yl)phenoxy)-6-(2,2,2-trifluoroethoxy)benzyl)-4-(4-chlorobenzyl)-7-(methoxymethyl)-5,10,16-trimethylhexadecahydrobenzo[l][1,4,7,11,14]pentaazacyclooctadecine-2,6,9,12,15(3H)-pentaone]
Max % inhibition: 104.01% | IC50: 0.9 nM

CCC(CC)[C@@H]1CC(=O)N(Cc2ccc(Cl)cc2Oc2ccc(-c3cnc(CN(C)C)n3C)cc2)[C@@H](C)C(=O)N[C@@H](COC)C(=O)N(C)[C@@H](Cc2ccc(Cl)cc2)CC(=O)NC[C@H](C)N(C)C1=O [Compound 40, (2S,5S,8S,13S,16S)-1-(4-chloro-2-(4-(2-((dimethylamino)methyl)-1-methyl-1H-imidazol-5-yl)phenoxy)benzyl)-8-(4-chlorobenzyl)-5-(methoxymethyl)-2,7,13,14-tetramethyl-16-(pentan-3-yl)-1,4,7,11,14-pentaazacyclooctadecane-3,6,10,15,18-pentaone]
Max % inhibition: 104.99% | IC50: 99.6 nM

COC[C@@H]1NC(=O)C(C)N(Cc2c(F)cc(F)cc2Oc2ccc(-c3cnc(CN(C)C)n3C)cc2)C(=O)C[C@@H](Cc2ccccc2)C(=O)N(C)[C@H]2CCCC[C@@H]2NC(=O)C[C@H](Cc2ccc(Cl)cc2)N(C)C1=O (stereo partly drawn) [Compound 41, (4S,7S,14R,16aS,20aS)-14-benzyl-4-(4-chlorobenzyl)-11-(2-(4-(2-((dimethylamino)methyl)-1-methyl-1H-imidazol-5-yl)phenoxy)-4,6-difluorobenzyl)-7-(methoxymethyl)-5,10,16-trimethylhexadecahydrobenzo[l][1,4,7,11,14]pentaazacyclooctadecine-2,6,9,12,15(3H)-pentaone]
Max % inhibition: 84.34% | IC50: 4.7 nM
